Measured values taken from patent US20250114338A1, “TETRAHYDRO-PYRIDO[3,4-b]INDOLE ESTROGEN RECEPTOR MODULATORS AND USES THEREOF” (Genentech, Inc., priority 2014, published 2025).
pEC50: −log10 of the molar value.

Columns and labels:
[1] = biological target: estrogen receptor alpha (ESR1) in MCF7 breast cancer cells (Homo sapiens (Human), UniProt P03372); experiment: Breast Cancer Cell ERa High Content Fluorescence Imaging Degradation Assay (Example 901); type: cell-based; details: 4 hours, plateau of maximal effect, 0% = DMSO, 100% change = 5 nM Fulvestrant
Description: Where more than one name is associated with a Formula I compound or intermediate, the chemical structure shall define the compound. […] Cell plates were incubated at 37° C., for 4 hours. Fixation and permeabilization were carried out using a Biotek EL406 plate washer and dispenser as follows. […] Well contents were aspirated and washed 3 times with 100 μL/well of PBS. […] Samples were incubated for 2 hours at room temperature. […] Samples were incubated for 2 hours at room temperature. […] Quantitative fluorescence imaging of ESR1 was carried out using a Cellomics Arrayscan V (Thermo). […] Channel 1 (DNA stain) was used to define the nuclear region (Circ). […] The “Robust Fit” method was used to define the inflexion point of curve (EC50) and the plateau of the maximal effect (Sinf).

ER-alpha MCF7 = ER-alpha MCF7 HCS EC50; stated as measured by in vitro cell proliferation assays of Examples 902 and 903; type: cell-based; details: Homo sapiens
Procedure, shortened: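 MCF7 cells seeded 1000-2000 cells/well for 16 h, then treated with nine-point 1:2 DMSO dilution series in quadruplicate at 37 °C, 5% CO2 for 4 days. Viable cells quantified by CellTiter-Glo ATP luminescence; EC50 calculated. Controls: fulvestrant at final 100 nM, DMSO 0.2% v/v.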

Chain of estrogen receptor alpha (ESR1) in MCF7 breast cancer cells (P03372 whole entry): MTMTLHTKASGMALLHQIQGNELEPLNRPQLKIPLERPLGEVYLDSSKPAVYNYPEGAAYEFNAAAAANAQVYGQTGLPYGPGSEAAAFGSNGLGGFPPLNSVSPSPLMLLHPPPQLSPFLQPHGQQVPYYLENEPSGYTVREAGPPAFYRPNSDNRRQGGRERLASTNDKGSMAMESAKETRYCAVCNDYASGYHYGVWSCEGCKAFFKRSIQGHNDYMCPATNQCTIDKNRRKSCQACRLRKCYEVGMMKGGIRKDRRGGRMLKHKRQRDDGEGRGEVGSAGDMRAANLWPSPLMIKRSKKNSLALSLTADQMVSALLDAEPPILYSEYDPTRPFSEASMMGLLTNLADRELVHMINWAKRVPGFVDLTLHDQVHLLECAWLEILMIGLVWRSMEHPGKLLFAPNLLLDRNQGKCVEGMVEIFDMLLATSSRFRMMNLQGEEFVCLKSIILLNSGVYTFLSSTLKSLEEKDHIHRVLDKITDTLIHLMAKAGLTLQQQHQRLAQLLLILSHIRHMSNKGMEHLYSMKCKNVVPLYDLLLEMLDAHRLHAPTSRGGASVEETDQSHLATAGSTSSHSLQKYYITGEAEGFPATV

| Structure (SMILES) | ER-alpha MCF7 HCS Sinf (%) [1] [%] | other results |
| --- | --- | --- |
| CC(C)C(=O)N1[C@H](c2c(F)cc(OCCN3CC(CF)C3)cc2F)c2[nH]c3ccccc3c2C[C@H]1C [Example 103, 1-((1R,3R)-1-(2,6-difluoro-4-(2-(3-(fluoromethyl)azetidin-1-yl)ethoxy)phenyl)-3-methyl-3,4-dihydro-1H-pyrido[3,4-b]indol-2(9H)-yl)-2-methylpropan-1-one] | −91.8 | pEC50 (ER-alpha MCF7; MCF7 cells, Table 1): 9.96 |
| C[C@@H]1Cc2c([nH]c3ccccc23)[C@@H](c2c(F)cc(OCCN3CC(CF)C3)cc2F)N1C(=O)C(C)(C)F [Example 104, 1-((1R,3R)-1-(2,6-difluoro-4-(2-(3-(fluoromethyl)azetidin-1-yl)ethoxy)phenyl)-3-methyl-3,4-dihydro-1H-pyrido[3,4-b]indol-2(9H)-yl)-2-fluoro-2-methylpropan-1-one] | −95.4 |  |
| C[C@@H]1Cc2c([nH]c3ccccc23)[C@@H](c2c(F)cc(OCCN3CC(C(F)F)C3)cc2F)N1CC(C)(C)F [Example 105, (1R,3R)-1-(4-(2-(3-(difluoromethyl)azetidin-1-yl)ethoxy)-2,6-difluorophenyl)-2-(2-fluoro-2-methylpropyl)-3-methyl-2,3,4,9-tetrahydro-1H-pyrido[3,4-b]indole] | −94 |  |
| C[C@@H]1Cc2c([nH]c3ccccc23)[C@@H](c2c(F)cc(OC3CN(CCCCl)C3)cc2F)N1CC(C)(C)F [Example 106, (1R,3R)-1-(4-((1-(3-chloropropyl)azetidin-3-yl)oxy)-2,6-difluorophenyl)-2-(2-fluoro-2-methylpropyl)-3-methyl-2,3,4,9-tetrahydro-1H-pyrido[3,4-b]indole] | −90.4 |  |
| CCCN1CC(Oc2cc(F)c([C@@H]3c4[nH]c5ccccc5c4C[C@@H](C)N3CC(C)(C)F)c(F)c2)C1 [Example 107, (1R,3R)-1-(2,6-difluoro-4-((1-propylazetidin-3-yl)oxy)phenyl)-2-(2-fluoro-2-methylpropyl)-3-methyl-2,3,4,9-tetrahydro-1H-pyrido[3,4-b]indole] | −97.6 |  |
| C[C@@H]1Cc2c([nH]c3ccccc23)[C@@H](c2c(F)cc(OC[C@H](C)N3CC[C@@H](CF)C3)cc2F)N1CC(C)(C)F [Example 108, (1R,3R)-1-(2,6-difluoro-4-((S)-2-((R)-3-(fluoromethyl)pyrrolidin-1-yl)propoxy)phenyl)-2-(2-fluoro-2-methylpropyl)-3-methyl-2,3,4,9-tetrahydro-1H-pyrido[3,4-b]indole] | −79.3 |  |
| C[C@@H]1Cc2c([nH]c3ccccc23)[C@@H](c2c(F)cc(OCCN3CC[C@@H](CF)C3)cc2F)N1CC(C)(C)F [Example 109, (1R,3R)-1-(2,6-difluoro-4-(2-((R)-3-(fluoromethyl)pyrrolidin-1-yl)ethoxy)phenyl)-2-(2-fluoro-2-methylpropyl)-3-methyl-2,3,4,9-tetrahydro-1H-pyrido[3,4-b]indole] | −86.5 |  |
| C[C@@H]1Cc2c([nH]c3ccccc23)[C@@H](c2c(F)cc(OCCN3CC(CF)C3)cc2F)N1CC1CCC1 [Example 113, (1R,3R)-2-(cyclobutylmethyl)-1-(2,6-difluoro-4-(2-(3-(fluoromethyl)azetidin-1-yl)ethoxy)phenyl)-3-methyl-2,3,4,9-tetrahydro-1H-pyrido[3,4-b]indole] | −94.8 | pEC50 (ER-alpha MCF7; MCF7, MCF7 cells, Table 1): 8.21 |
| C[C@@H]1Cc2c([nH]c3ccccc23)[C@@H](c2c(F)cc(OCCN3CC(CF)C3)cc2F)N1CC1COC1 [Example 115, (1R,3R)-1-(2,6-difluoro-4-(2-(3-(fluoromethyl)azetidin-1-yl)ethoxy)phenyl)-3-methyl-2-(oxetan-3-ylmethyl)-2,3,4,9-tetrahydro-1H-pyrido[3,4-b]indole] | −95.5 | pEC50 (ER-alpha MCF7; MCF7, MCF7 cells, Table 1): 7.64 |
| C[C@@H]1Cc2c([nH]c3ccccc23)[C@@H](c2c(F)cc(OCCN3CC(CF)C3)cc2F)N1C1COC1 [Example 116, (1R,3R)-1-(2,6-difluoro-4-(2-(3-(fluoromethyl)azetidin-1-yl)ethoxy)phenyl)-3-methyl-2-(oxetan-3-yl)-2,3,4,9-tetrahydro-1H-pyrido[3,4-b]indole] | −85 | pEC50 (ER-alpha MCF7; MCF7, MCF7 cells, Table 1): 7.38 |
| C[C@@H]1Cc2c([nH]c3ccccc23)[C@@H](c2c(F)cc(OCCN3CCCC3)cc2F)N1CC(C)(C)F [Example 117, (1R,3R)-1-(2,6-difluoro-4-(2-(pyrrolidin-1-yl)ethoxy)phenyl)-2-(2-fluoro-2-methylpropyl)-3-methyl-2,3,4,9-tetrahydro-1H-pyrido[3,4-b]indole] | −71.7 |  |
| C[C@@H]1Cc2c([nH]c3ccccc23)[C@@H](c2c(F)cc(OCCN3CCCCC3)cc2F)N1CC(C)(C)F [Example 118, (1R,3R)-1-(2,6-difluoro-4-(2-(piperidin-1-yl)ethoxy)phenyl)-2-(2-fluoro-2-methylpropyl)-3-methyl-2,3,4,9-tetrahydro-1H-pyrido[3,4-b]indole] | −72.2 |  |
| C[C@@H]1Cc2c([nH]c3ccccc23)[C@@H](c2c(F)cc(OCCN3CC(CO)C3)cc2F)N1CC(C)(C)F [Example 119, (1-(2-(3,5-difluoro-4-((1R,3R)-2-(2-fluoro-2-methylpropyl)-3-methyl-2,3,4,9-tetrahydro-1H-pyrido[3,4-b]indol-1-yl)phenoxy)ethyl)azetidin-3-yl)methanol] | −71.3 |  |
| C[C@@H]1Cc2c([nH]c3ccccc23)[C@@H](c2ccc(OCCN3CC(CF)C3)cc2F)N1CC(C)(C)F [Example 120, (1R,3R)-2-(2-fluoro-2-methylpropyl)-1-(2-fluoro-4-(2-(3-(fluoromethyl)azetidin-1-yl)ethoxy)phenyl)-3-methyl-2,3,4,9-tetrahydro-1H-pyrido[3,4-b]indole] | −96.3 | pEC50 (ER-alpha MCF7; MCF7, MCF7 cells, Table 1): 10.25 |
| CC(=O)N1[C@H](c2c(F)cc(OCCN3CC(CF)C3)cc2F)c2[nH]c3ccccc3c2C[C@H]1C [Example 121, 1-((1R,3R)-1-(2,6-difluoro-4-(2-(3-(fluoromethyl)azetidin-1-yl)ethoxy)phenyl)-3-methyl-3,4-dihydro-1H-pyrido[3,4-b]indol-2(9H)-yl)ethanone] | −91 |  |
| C[C@@H]1Cc2c([nH]c3ccccc23)[C@@H](c2c(F)cc(OCCN3CC(CF)C3)cc2F)N1C(=O)C(C)(C)O [Example 122, 1-((1R,3R)-1-(2,6-difluoro-4-(2-(3-(fluoromethyl)azetidin-1-yl)ethoxy)phenyl)-3-methyl-3,4-dihydro-1H-pyrido[3,4-b]indol-2(9H)-yl)-2-hydroxy-2-methylpropan-1-one] | −97.8 | pEC50 (ER-alpha MCF7; MCF7, MCF7 cells, Table 1): 8.85 |
| C[C@@H]1Cc2c([nH]c3ccccc23)[C@@H](c2c(F)cc(OCCN3CC(CF)C3)cc2F)N1S(C)(=O)=O [Example 126, (1R,3R)-1-(2,6-difluoro-4-(2-(3-(fluoromethyl)azetidin-1-yl)ethoxy)phenyl)-3-methyl-2-(methylsulfonyl)-2,3,4,9-tetrahydro-1H-pyrido[3,4-b]indole] | −94.4 |  |
| C[C@@H]1Cc2c([nH]c3ccccc23)[C@@H](c2c(F)cc(NC3CN(CCCF)C3)cc2F)N1CC(F)F [Example 430, N-[4-[(1R,3R)-2-(2,2-difluoroethyl)-3-methyl-1,3,4,9-tetrahydropyrido[3,4-b]indol-1-yl]-3,5-difluoro-phenyl]-1-(3-fluoropropyl)azetidin-3-amine] |  | pEC50 (ER-alpha MCF7; MCF7, MCF7 cells, Table 2): 10.19 |
| C[C@@H]1Cc2c([nH]c3ccc(F)cc23)[C@@H](c2c(F)cc(NC3CN(CCCF)C3)cc2F)N1C[C@@](C)(F)CO [Example 431, (R)-3-((1R,3R)-1-(2,6-difluoro-4-((1-(3-fluoropropyl)azetidin-3-yl)amino)phenyl)-6-fluoro-3-methyl-1,3,4,9-tetrahydro-2H-pyrido[3,4-b]indol-2-yl)-2-fluoro-2-methylpropan-1-ol] |  | pEC50 (ER-alpha MCF7; MCF7, MCF7 cells, Table 2): 10.03 |
| C[C@H]1Cc2c([nH]c3ccc(F)cc23)[C@H](c2c(F)cc(NC3CN(CCCF)C3)cc2F)N1C[C@](C)(F)CO [Example 432, (S)-3-((1S,3S)-1-(2,6-difluoro-4-((1-(3-fluoropropyl)azetidin-3-yl)amino)phenyl)-6-fluoro-3-methyl-1,3,4,9-tetrahydro-2H-pyrido[3,4-b]indol-2-yl)-2-fluoro-2-methylpropan-1-ol] |  | pEC50 (ER-alpha MCF7; MCF7, MCF7 cells, Table 2): 8.49 |
| C[C@@H]1Cc2c([nH]c3ccc(F)cc23)[C@@H](c2c(F)cc(NC3CN(CCCF)C3)cc2F)N1C[C@](C)(F)CO [Example 433, (S)-3-((1R,3R)-1-(2,6-difluoro-4-((1-(3-fluoropropyl)azetidin-3-yl)amino)phenyl)-6-fluoro-3-methyl-1,3,4,9-tetrahydro-2H-pyrido[3,4-b]indol-2-yl)-2-fluoro-2-methylpropan-1-ol] |  | pEC50 (ER-alpha MCF7; MCF7, MCF7 cells, Table 2): 10.68 |
| C[C@H]1Cc2c([nH]c3ccc(F)cc23)[C@@H](c2c(F)cc(NC3CN(CCCF)C3)cc2F)N1C[C@@](C)(F)CO [Example 434, (R)-3-((1R,3S)-1-(2,6-difluoro-4-((1-(3-fluoropropyl)azetidin-3-yl)amino)phenyl)-6-fluoro-3-methyl-1,3,4,9-tetrahydro-2H-pyrido[3,4-b]indol-2-yl)-2-fluoro-2-methylpropan-1-ol] |  | pEC50 (ER-alpha MCF7; MCF7, MCF7 cells, Table 2): 9.15 |
